Drawing on ChEMBL document CHEMBL1938384, “Lysine demethylases inhibitors” (J Med Chem, 2011), this text covers IC50, Ki and inhibition for eleven compounds.

Calls of active or inactive are those of the source. The rule behind the calls is not given here.

As a reminder, the IC50 is the concentration that inhibits the measured activity by half. Usually Ki stands for the equilibrium dissociation constant of an inhibitor or competing ligand from its target. Higher therefore signals a looser hold on the target.

Assay [1] deals with T1, Lysine-specific demethylase 2A (Homo sapiens, UniProt Q9Y2K7).
T1 sequence (Q9Y2K7 whole entry): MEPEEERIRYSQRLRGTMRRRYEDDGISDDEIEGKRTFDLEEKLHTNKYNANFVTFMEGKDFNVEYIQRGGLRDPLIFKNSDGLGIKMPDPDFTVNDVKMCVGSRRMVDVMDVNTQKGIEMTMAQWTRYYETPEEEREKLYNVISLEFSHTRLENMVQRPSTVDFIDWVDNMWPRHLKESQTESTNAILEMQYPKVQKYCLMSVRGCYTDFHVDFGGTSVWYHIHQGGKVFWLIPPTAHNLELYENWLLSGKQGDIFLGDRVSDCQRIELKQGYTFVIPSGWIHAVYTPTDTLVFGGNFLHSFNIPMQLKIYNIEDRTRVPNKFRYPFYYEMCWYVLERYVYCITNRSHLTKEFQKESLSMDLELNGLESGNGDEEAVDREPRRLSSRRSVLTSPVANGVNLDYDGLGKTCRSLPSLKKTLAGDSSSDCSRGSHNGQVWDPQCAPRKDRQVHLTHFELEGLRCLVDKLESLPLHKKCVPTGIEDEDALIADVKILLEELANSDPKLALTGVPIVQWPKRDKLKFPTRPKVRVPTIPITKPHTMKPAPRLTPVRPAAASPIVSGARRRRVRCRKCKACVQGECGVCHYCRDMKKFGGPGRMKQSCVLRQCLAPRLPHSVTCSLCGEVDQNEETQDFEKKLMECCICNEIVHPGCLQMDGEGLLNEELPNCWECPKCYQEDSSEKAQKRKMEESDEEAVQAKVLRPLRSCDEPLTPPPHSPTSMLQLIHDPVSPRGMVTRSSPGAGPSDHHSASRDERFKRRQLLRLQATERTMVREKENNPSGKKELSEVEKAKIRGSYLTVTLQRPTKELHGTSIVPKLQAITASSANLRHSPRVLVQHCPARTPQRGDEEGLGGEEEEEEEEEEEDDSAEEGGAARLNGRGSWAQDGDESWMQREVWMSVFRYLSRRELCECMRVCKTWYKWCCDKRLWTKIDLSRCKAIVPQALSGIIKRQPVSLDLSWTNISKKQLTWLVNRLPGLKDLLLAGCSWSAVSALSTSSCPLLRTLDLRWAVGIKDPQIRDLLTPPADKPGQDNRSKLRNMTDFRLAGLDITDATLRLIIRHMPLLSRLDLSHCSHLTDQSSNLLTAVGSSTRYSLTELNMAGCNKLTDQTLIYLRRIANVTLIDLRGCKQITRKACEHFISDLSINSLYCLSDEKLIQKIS

Assay [2] deals with T2, Lysine-specific demethylase 4A (Homo sapiens, UniProt O75164).
T2 sequence (O75164 whole entry): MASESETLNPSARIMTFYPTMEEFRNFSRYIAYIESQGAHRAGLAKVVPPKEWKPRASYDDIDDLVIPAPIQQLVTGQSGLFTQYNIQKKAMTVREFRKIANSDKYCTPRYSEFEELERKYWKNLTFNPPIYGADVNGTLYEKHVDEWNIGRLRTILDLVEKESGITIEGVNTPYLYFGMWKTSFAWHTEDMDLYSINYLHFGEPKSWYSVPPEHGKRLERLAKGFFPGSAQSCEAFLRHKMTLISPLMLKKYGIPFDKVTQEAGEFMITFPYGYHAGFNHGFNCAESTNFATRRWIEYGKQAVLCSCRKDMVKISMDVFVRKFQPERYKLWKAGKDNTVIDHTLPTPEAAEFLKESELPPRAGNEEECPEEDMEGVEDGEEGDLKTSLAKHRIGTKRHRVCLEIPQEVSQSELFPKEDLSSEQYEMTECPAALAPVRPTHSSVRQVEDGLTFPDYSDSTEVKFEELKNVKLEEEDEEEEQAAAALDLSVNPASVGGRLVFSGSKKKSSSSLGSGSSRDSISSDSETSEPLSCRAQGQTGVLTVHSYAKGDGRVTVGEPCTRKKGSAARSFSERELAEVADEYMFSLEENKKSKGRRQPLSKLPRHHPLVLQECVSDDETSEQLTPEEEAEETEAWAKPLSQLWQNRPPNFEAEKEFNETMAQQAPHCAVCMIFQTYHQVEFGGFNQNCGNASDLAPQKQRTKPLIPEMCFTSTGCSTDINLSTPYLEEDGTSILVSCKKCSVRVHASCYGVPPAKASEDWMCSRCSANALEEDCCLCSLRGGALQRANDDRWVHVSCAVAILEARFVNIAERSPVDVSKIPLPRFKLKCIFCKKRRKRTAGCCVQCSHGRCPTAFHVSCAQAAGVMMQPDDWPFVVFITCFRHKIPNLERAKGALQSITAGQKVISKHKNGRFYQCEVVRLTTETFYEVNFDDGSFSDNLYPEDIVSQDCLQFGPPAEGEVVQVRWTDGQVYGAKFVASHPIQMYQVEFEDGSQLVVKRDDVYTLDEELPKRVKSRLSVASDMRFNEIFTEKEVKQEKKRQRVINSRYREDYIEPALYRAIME

For assay [3], the target named is Histone lysine demethylase PHF8 (Homo sapiens, UniProt Q9UPP1). In words: Inhibition of KDM7B.
The target of assay [4] is T3, Egl nine homolog 1 (Homo sapiens, UniProt Q9GZT9).
Target sequence in this assay (Q9GZT9 whole entry): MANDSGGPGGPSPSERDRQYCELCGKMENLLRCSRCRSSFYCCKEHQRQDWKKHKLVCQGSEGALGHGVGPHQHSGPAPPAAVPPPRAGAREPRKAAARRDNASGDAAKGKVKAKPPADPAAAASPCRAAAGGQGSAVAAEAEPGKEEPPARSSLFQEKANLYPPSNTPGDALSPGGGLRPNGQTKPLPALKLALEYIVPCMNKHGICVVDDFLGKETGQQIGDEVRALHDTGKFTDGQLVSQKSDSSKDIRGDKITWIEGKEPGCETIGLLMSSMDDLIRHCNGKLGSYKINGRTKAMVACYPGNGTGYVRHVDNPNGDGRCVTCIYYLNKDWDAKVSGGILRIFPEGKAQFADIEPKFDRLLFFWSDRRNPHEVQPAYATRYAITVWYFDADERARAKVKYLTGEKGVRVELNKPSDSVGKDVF
For assay [5], the target named is Lysine-specific demethylase 6B (Homo sapiens, UniProt O15054). In words: Inhibition of KDM6B.
Assay [6] addresses Hypoxia-inducible factor 1-alpha inhibitor (Homo sapiens, UniProt Q9NWT6).
A further assay addresses Prolyl hydroxylase EGLN2 (Homo sapiens, UniProt Q96KS0).
The target of assay [7] is T4, Lysine-specific demethylase 4C (Homo sapiens, UniProt Q9H3R0).
T4 sequence (Q9H3R0 whole entry): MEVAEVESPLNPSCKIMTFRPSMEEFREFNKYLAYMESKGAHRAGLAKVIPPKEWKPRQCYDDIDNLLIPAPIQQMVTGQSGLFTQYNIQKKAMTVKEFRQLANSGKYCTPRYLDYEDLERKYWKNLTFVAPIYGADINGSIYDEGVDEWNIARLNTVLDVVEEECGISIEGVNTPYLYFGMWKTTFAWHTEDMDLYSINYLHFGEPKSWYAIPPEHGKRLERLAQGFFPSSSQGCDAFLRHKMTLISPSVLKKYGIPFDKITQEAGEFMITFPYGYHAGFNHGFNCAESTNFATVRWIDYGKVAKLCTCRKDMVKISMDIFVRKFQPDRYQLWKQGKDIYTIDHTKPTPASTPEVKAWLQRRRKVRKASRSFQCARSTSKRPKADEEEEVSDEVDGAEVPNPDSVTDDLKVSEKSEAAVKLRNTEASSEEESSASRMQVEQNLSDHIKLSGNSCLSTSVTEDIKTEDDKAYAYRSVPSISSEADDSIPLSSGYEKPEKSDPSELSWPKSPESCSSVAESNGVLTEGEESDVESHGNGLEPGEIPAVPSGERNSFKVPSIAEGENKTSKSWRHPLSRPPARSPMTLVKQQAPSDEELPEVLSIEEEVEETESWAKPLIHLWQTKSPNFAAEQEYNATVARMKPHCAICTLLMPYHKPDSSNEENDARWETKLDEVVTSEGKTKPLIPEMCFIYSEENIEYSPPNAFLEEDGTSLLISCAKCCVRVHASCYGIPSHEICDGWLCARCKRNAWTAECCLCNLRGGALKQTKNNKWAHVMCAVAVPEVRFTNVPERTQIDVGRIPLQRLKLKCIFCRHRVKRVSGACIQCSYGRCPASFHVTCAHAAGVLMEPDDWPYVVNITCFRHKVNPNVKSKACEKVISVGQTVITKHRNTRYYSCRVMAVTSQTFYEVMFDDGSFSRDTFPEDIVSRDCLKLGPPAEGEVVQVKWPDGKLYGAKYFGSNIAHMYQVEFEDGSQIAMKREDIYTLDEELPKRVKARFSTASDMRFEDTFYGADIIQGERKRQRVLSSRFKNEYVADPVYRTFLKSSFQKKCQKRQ

For a further assay, the target named is Prolyl hydroxylase EGLN3 (Homo sapiens, UniProt Q9H6Z9). In words: Inhibition of PHD3.
Assay [8] concerns the target T5, Amine oxidase [flavin-containing] A (Homo sapiens, UniProt P21397).
T5 sequence (P21397 whole entry): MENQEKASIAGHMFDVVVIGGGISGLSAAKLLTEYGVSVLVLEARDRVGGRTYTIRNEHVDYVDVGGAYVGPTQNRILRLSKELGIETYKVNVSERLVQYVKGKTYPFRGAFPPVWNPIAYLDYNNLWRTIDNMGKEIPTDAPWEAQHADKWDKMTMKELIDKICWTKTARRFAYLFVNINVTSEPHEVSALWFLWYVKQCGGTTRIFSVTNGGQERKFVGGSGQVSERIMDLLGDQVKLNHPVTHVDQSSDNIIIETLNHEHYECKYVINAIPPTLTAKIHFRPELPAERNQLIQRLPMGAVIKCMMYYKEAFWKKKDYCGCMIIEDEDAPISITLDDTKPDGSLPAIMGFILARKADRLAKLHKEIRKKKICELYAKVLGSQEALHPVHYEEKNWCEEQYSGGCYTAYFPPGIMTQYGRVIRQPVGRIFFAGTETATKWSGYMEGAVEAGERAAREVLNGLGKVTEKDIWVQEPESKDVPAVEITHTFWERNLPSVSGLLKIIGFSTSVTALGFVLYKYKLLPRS

In assay [9] the target is T6, Amine oxidase [flavin-containing] B (Homo sapiens, UniProt P27338).
T6 sequence (P27338 whole entry): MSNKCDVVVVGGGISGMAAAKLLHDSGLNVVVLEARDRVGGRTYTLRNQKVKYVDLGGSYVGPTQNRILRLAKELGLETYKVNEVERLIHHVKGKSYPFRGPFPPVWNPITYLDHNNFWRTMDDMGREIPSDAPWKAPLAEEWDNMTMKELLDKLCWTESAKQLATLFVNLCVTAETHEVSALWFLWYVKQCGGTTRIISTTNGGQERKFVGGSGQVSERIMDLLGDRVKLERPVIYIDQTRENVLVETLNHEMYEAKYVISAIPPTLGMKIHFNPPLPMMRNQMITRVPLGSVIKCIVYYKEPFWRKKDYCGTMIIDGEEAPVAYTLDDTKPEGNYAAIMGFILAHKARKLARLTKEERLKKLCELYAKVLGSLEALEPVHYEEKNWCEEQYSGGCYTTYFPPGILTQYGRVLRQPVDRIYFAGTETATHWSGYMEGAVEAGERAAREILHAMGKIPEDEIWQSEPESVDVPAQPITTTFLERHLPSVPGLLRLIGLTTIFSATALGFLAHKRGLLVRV

Assay [10] has as its target T3, Egl nine homolog 1. The source holds these as a separate data set.
Target sequence in this assay (Q9GZT9 2-426 limits assumed): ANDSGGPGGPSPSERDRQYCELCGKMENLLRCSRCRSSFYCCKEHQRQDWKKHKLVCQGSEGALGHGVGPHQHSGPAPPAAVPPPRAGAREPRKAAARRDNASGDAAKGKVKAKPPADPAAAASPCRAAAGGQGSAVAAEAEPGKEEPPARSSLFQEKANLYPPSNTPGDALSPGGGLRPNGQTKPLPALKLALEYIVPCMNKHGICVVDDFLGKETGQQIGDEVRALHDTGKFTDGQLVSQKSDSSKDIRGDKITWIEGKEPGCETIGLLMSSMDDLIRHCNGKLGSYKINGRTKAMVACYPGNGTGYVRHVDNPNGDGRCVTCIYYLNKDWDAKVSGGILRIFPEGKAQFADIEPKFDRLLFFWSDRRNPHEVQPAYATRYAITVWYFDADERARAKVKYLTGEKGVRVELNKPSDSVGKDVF

Chain of Hypoxia-inducible factor 1-alpha inhibitor (Q9NWT6 whole entry): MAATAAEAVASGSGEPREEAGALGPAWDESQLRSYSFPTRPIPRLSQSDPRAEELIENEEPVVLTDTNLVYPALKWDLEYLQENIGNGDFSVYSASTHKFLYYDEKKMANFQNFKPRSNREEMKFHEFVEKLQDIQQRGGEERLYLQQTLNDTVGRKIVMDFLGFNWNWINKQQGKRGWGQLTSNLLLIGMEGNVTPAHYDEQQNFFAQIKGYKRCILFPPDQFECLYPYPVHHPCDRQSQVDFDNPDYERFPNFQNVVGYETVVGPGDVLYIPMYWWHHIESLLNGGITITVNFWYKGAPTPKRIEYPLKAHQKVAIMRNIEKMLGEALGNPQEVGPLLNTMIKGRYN
Chain of Histone lysine demethylase PHF8 (Q9UPP1 whole entry): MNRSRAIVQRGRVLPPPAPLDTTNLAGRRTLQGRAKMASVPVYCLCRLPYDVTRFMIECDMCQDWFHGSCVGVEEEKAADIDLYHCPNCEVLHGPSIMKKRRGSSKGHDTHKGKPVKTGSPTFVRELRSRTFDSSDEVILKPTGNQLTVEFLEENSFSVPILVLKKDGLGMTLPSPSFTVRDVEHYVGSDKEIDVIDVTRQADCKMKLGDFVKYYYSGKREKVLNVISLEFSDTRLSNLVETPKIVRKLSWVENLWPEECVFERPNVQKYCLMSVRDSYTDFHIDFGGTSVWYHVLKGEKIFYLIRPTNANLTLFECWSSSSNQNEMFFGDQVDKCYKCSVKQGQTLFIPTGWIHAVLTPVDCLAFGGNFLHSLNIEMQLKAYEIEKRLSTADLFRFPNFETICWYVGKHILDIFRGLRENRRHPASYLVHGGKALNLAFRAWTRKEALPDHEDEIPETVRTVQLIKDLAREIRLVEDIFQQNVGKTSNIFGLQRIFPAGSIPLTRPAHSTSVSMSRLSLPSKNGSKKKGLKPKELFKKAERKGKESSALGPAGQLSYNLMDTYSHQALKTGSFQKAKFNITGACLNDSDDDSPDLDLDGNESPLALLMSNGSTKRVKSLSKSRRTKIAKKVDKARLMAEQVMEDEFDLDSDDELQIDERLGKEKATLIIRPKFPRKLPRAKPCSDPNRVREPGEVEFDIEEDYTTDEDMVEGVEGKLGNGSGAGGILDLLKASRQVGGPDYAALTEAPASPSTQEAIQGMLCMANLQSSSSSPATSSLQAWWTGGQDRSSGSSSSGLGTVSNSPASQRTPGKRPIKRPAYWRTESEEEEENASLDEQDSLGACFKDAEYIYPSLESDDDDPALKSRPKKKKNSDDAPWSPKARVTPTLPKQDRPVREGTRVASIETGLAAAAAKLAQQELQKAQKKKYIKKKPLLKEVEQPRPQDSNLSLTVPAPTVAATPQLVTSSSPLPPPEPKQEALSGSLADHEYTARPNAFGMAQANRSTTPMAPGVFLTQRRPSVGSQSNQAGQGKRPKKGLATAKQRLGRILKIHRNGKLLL
Chain of Prolyl hydroxylase EGLN2 (Q96KS0 whole entry): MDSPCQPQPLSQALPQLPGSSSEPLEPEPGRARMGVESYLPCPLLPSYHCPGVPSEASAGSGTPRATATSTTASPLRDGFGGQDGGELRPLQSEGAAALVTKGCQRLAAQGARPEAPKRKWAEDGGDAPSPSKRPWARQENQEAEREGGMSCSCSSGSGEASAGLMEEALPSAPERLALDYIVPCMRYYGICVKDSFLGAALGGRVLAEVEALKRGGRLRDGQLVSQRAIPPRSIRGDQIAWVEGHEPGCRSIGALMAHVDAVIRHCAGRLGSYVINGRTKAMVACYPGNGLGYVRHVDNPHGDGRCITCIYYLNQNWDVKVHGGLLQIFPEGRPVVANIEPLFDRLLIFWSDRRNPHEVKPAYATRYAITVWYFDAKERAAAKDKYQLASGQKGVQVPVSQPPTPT
Chain of Prolyl hydroxylase EGLN3 (Q9H6Z9 whole entry): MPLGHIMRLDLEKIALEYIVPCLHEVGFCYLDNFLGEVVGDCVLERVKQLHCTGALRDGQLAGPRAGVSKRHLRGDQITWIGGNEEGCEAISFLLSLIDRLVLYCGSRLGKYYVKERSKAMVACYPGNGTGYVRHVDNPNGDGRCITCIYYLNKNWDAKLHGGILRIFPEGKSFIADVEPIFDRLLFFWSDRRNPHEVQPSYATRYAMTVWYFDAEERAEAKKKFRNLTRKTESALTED
Chain of Lysine-specific demethylase 6B (O15054 whole entry): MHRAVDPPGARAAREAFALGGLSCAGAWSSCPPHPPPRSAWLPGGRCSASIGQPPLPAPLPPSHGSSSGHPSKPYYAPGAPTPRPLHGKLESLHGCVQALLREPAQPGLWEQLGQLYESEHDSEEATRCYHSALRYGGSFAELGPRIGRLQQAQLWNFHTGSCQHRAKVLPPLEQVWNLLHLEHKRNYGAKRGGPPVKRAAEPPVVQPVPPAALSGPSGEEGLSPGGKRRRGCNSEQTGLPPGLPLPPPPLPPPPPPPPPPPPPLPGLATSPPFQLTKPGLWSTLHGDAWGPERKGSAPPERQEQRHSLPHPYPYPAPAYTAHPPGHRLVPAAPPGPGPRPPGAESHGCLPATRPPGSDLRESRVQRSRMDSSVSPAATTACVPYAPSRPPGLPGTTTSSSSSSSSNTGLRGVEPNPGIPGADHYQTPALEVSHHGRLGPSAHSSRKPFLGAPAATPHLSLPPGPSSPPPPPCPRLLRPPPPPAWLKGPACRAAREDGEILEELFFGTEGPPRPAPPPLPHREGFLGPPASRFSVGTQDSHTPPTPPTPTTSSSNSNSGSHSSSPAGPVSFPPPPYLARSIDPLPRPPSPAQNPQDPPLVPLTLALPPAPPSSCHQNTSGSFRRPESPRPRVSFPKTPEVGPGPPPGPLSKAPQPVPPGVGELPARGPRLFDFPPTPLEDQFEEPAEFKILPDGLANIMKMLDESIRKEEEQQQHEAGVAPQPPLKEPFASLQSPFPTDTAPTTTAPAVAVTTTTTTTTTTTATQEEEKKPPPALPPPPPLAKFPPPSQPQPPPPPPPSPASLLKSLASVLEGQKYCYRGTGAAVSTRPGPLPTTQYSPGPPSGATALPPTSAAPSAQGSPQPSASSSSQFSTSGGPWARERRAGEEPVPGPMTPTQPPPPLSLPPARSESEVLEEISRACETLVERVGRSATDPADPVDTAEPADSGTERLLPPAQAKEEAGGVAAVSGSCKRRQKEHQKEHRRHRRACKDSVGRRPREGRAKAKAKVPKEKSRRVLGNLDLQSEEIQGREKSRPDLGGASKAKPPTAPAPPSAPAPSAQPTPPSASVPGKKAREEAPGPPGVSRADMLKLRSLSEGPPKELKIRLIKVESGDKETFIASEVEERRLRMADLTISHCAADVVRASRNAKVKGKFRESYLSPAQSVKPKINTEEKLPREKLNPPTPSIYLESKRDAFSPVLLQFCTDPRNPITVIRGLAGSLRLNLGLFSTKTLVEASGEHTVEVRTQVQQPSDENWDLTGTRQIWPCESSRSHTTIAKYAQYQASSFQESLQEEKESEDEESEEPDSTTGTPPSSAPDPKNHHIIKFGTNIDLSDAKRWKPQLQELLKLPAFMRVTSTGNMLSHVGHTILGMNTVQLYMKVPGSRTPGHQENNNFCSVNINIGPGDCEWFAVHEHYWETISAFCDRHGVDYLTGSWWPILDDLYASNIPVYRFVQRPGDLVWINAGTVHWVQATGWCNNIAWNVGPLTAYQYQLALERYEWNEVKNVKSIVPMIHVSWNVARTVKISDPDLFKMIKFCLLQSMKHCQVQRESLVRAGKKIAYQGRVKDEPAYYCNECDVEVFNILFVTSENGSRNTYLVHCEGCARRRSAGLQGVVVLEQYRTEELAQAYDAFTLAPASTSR

`O=C(O)CC[C@H](O)C(=O)O`: the IC50 in assay [1] was 48 µM.

Consider `O=C(O)/C=C/C(=O)N(O)CCCCNCc1ccc(COC(=O)Nc2cccc3ccccc23)cc1`, for which the IC50 came to 4.3 µM in assay [2]; 10 µM in assay [3]; 83 µM against Egl nine homolog 1 [4]; 43 µM in assay [5]; 22 µM in assay [6]; 54 µM against Prolyl hydroxylase EGLN2. For the same compound, the IC50 came out at 3.4 µM in [7] and 31 µM against Prolyl hydroxylase EGLN3.

On Egl nine homolog 1 [4], `O=C(O)c1ccnc(C(=O)O)c1Nc1ccccc1F` had an IC50 of more than 400 µM.

With `NC1CC1c1cccc(OCC[C@H](NC(=O)c2ccccc2)C(=O)NCc2ccccc2)c1` (some centres not stated), the Ki in assay [8] stood at 230 µM; in assay [9], 740 µM.

For the compound `NC1CC1c1cc(F)cc(F)c1OCc1ccccc1` (configuration not stated), the Ki came to 110 µM in assay [8] and 17 µM in assay [9].

With `N[C@@H]1C[C@H]1c1ccc(OCC[C@H](NC(=O)c2ccccc2)C(=O)NCc2ccccc2)cc1`, the Ki in assay [8] was 250 µM; in assay [9] it was 1700 µM.

For the compound `O=C(O)C(=O)N[C@H](Cc1ccc(OS(=O)(=O)c2ccc(Br)cc2)cc1)C(=O)O`, at Egl nine homolog 1 [10], the inhibition result is “inactive”.

The compound `O=C(O)CC[C@@H](O)C(=O)O` had an IC50 in assay [1] of 106 µM.

`S=C(SSC(=S)N1CCCC1)N1CCCC1` [BIS(PYRROLIDINYLTHIOCARBONYL)DISULFIDE] registered an IC50 in assay [2] of 3.3 µM.

Compound `NC1CC1c1ccc(NC(=O)C(Cc2ccccc2)NC(=O)OCc2ccccc2)cc1` (configuration not stated) yielded a Ki in assay [9] of more than 133 µM.

With `O=C(O)c1ccnc2c(O)cccc12`, the IC50 on Egl nine homolog 1 [4] was determined as 14 µM; in assay [6], 21 µM.
